Key:
Type in all cases: binding, BALB/c mice
[1] = tested on: anti-carbaryl monoclonal antibody secreted by the hybridoma cell line Jnw1D2; experiment: indirect competitive ELISA characterisation of the anti-carbaryl monoclonal antibody (IC50, cross reaction); conditions: with anti-carbaryl monoclonal antibody
Source text: 2-3 weeks after cell fusion, when the cell colonies grew up to be visually visible, the clones were picked out from the culture medium with a micropipette, transferred to a 96-well cell culture plate and cultured in HAT liquid. When the cells grew to cover ⅔ of the bottom of the well, the culture supernatant was aspirated for testing. A two-step screening method was adopted. In the first step, indirect ELISA method was used to screen out the positive wells against carbaryl, but not the carrier protein BSA. In the second step, indirect competitive ELISA method was used for testing the positive wells screened out in the first step with carbaryl as a competitor. Wells with high absorbance and sensitivity were chosen (where the high absorbance means a high final value determined in the well where the competitor is 0, i.e., the positive control well, and the high sensitivity means a low concentration, i.e. the IC50, of the competitor achieving 50% inhibition). The cells were subcloned by limiting dilution analysis, and then detected by the two-step method as described above. After 4-5 rounds of repeated subcloning, a hybridoma cell line Jnw1D2 was obtained, which was deposited in China Center for Type Culture Collection (CCTCC) (Wuhan University, Wuhan, China) under the CCTCC Accession No: C201654.
The subtype of the anti-carbaryl monoclonal antibody secreted by the hybridoma cell line Jnw1D2 was identified as IgG2b by using a commercial subtype identification kit. The titer of the antibody was 1.6×10^4 measured by enzyme-linked immunosorbent assay (ELISA).

[2] = tested on: anti-carbaryl monoclonal antibody; experiment: competitive FPIA carbaryl standard curve in strawberry sample matrix; conditions: 25° C., 5 min
Description: Step 1: 20.0 g of the blank strawberry sample (which was determined to be carbaryl free by LC) was weighed and added to 20.0 mL acetonitrile, homogenized for 2 min at a high speed, filtered into a 50 mL centrifuge tube containing 4 g of sodium chloride, shaken vigorously for 3 min, and centrifuged at 5000 g for 2 min. 10 mL of the supernatant extract was aspirated to a beaker, heated in a water bath at 80° C., and evaporated to almost dryness while nitrogen was introduced into the beaker. 10 mL of methanol was added to dissolve the sample residue, to obtain a sample matrix solution. 9 concentration gradients of carbaryl standards of 100 μg/mL, 10 μg/mL, 1μg/mL, 0.5 μg/mL, 0.1 μg/mL, 0.05 μg/mL, 0.01 μg/mL, 0.005 μg/mL and 0.001 μg/mL were formulated with the sample matrix solution. Each 50 μL of the carbaryl standard solution in the sample matrix solution, 500 μL fluorescent marker solution and 500 μL anti-carbaryl monoclonal antibody solution were added and incubated at 25° C. for 5 min. Then FPIA detection was conducted. According to the correlation between the fluorescence polarization signal and the concentration of the carbaryl standard, a standard curve for carbaryl detection in the strawberry sample was obtained, as shown in FIG. 2. The detection sensitivity of carbaryl in the strawberry matrix is 108.6 μg/kg and the detection range is 32.4-363.6 μg/kg. […]

[3] = tested on: anti-carbaryl monoclonal antibody; experiment: competitive FPIA carbaryl standard curve in borate buffer solution; conditions: 10% methanol, 10 min
Description: Step 2: First, the working concentration of each fluorescent marker was set to a corresponding fluorescent marker concentration (5 nM) when the fluorescence intensity was 10 times of the background fluorescence intensity of the BB solution (borate buffer solution). With a corresponding antibody dilution factor when 70% of the anti-carbaryl monoclonal antibody binds to the fluorescent marker (1 μg/mL), the carbaryl detection standard curve of different markers was established and the IC50 was calculated. The optimum fluorescent marker was decided based on the IC50 value of each standard curve. […]
9 concentration gradients of carbaryl standards of 100 μg/mL, 10 μg/mL, 1 μg/mL, 0.5 μg/mL, 0.1 μg/mL, 0.05 μg/mL, 0.01 μg/mL, 0.005 μg/mL and 0.001 μg/mL were formulated with 10% methanol in a borate buffer solution, and each 50 μL of the carbaryl standards, 500 μL fluorescent marker of working concentration (5 nM), and 500 μL anti-carbaryl monoclonal antibody of the working concentration (1 μg/mL) were added to a reaction tube, and incubated at room temperature in the dark for 10 min. Then the fluorescence polarization value was measured at an excitation wavelength of 485 nm and an emission wavelength of 530 nm, with a cutoff of 515 nm. […]

| SMILES | cross reaction [1] | detection sensitivity [2] [µg/kg] | sensitivity of the standard curve [3] [ng/mL] |
| --- | --- | --- | --- |
| CNC(=O)O/N=C/C(C)(C)SC [aldicarb] | no cross reaction |  |  |
| CNC(=O)Oc1cccc2ccccc12 [carbaryl] |  | 108.6 | 82.3 |
| CNC(=O)Oc1cccc2c1OC(C)(C)C2 [carbofuran] | no cross reaction |  |  |
| CNC(=O)ON=C(C)SC [methomyl] | no cross reaction |  |  |
